Experimental data reported in US7342018B2, “Urokinase inhibitors and uses thereof” (Wilex AG, priority 1998, dated 2008).

Experiments:
[1] = target: Sc-tPA (single chain tPA) (Homo sapiens, UniProt P00750); experiment: In vitro inhibition of serine proteases: Sc-tPA; assay type: biochemical
Method: (§1) To determine the inhibitory activity, 200 μl of Tris buffer (0.05 mol/l, containing the inhibitor, 0.154 mol/l NaCl, 5% ethanol pH 8.0), 25 μl of substrate (Pefachrome UK or Bz-βAla-Gly-Arg-pNA in H2O; Pentapharm Ltd., Basle, Switzerland) and 50 μl of sc-urokinase (Ribosepharm GmbH, Haan, Germany) were incubated at 25° C. After 3 min the reaction was stopped by adding 25 μl of acetic acid (50%), and the absorption at 405 nm was determined by means of a Microplate Reader (MR 5000, Dynatech, Denkendorf, Germany). Ki values were determined according to Dixon by linear regression using a computer program. The Ki values are the mean values of at least three determinations with a standard deviation of less than 25%.
(§2) The inhibition activities of the enzymes used were determined according to the principle described in Example 3.

Thrombin = Thrombin (Homo sapiens, UniProt P00734); experiment: In vitro inhibition of serine proteases: thrombin; assay type: biochemical
Method: (§3) Ki values were determined according to Dixon by linear regression using a computer program.

Factor XIIa = target: T1, Factor XIIa (Homo sapiens, UniProt P00748); experiment: In vitro inhibition of serine proteases: factor XIIa; assay type: biochemical
T1 sequence (P00748 373-615 limits assumed): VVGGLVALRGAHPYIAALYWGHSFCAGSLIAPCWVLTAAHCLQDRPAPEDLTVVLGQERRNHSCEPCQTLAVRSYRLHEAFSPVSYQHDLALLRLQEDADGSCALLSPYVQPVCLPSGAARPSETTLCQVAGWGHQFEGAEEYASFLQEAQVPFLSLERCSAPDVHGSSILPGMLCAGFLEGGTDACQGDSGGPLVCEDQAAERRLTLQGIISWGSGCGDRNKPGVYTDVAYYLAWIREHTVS
Method: as §1, §2

Glandular kallikrein = Glandular kallikrein (Homo sapiens, UniProt P06870); experiment: In vitro inhibition of serine proteases: glandular kallikrein; assay type: biochemical
Sequence of Glandular kallikrein (P06870 25-262): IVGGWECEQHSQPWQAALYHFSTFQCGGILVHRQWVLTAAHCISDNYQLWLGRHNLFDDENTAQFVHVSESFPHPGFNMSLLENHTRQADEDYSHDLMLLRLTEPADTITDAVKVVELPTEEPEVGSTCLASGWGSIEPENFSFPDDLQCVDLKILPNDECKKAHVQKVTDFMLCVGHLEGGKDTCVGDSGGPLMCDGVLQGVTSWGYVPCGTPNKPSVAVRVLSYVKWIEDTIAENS
Method: as §3

Trypsin = target: T2, Trypsin (Bos taurus, UniProt P00760); experiment: In vitro inhibition of serine proteases: trypsin; assay type: biochemical
T2 construct: gene PRSS1
T2 sequence (P00760 24-246): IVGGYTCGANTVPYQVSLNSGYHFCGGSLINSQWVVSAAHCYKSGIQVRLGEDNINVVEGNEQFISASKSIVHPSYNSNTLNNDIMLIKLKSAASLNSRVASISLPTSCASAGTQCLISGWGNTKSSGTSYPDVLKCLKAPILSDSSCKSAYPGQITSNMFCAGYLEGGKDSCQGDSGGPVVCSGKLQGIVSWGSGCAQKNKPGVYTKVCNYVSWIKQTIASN
Method: as §3

[2] = tested on: BN-472 breast cancer tumor; experiment: Breast cancer model in rats (Example 7); assay type: in vivo; conditions: for average tumor weights at the end of the treatment, reduced to % of vehicle-treated control / mean weights of the axillary lymph nodes, reduced to % of control / number of lung foci, reduced to % of control: 1 mg/kg daily
Method: 10-25 mm^3 of BN-472 breast cancer tumor fragments from rats were transplanted into female brown Norwegian rats from 6 to 7 weeks old, subcutaneously and orthotopically under the subcutaneous fat of the mammary gland (Day 0). The treatment of the animals was started intraperitoneally 24 hours after tumor inoculation. Each group consisted of eight animals. The control group received only the injection solution (100 μl of a 10% ethanol/saline (0.9% NaCl) solution). A dose of 1 mg/kg body weight was intraperitoneally administered on a daily basis to the comparative group of the naphthyl derivative. (B) and to the therapy group of the inventive uPA inhibitor (A). The treatment was carried out over a period of 4 weeks.
The dimensions of the subcutaneous tumors and the weight of the animals were determined weekly. At the end of the treatment the animals were sacrificed and tumor weights, organ weights and the number of metastases in relevant tissues were determined.
The experiments described in sections A and B were repeated with the inhibitor administered in a different way. For this, the inhibitor was administered subcutaneously in the breast carcinoma model (n=9) and intraperitoneally in the pancreatic adenocarcinoma model (n=8) without changing the daily dose. The results of these repeat experiments corresponded to the results already discussed, both in tendency and extent.

rat breast tumor BN472 = experiment: BN472 rat breast tumor model, metastatic lung foci (Example 10); assay type: in vivo
From the text: In detail, the syngeneic transplantable spontaneously metastasizing rat breast tumor BN472 was used as a model. BN-472 transplantable rat mammary carcinoma used in this study was originally found spontaneously developed in a retired breeder female Brown Norway rat (Kort et al. J. Nat. Cancer Inst. 1984, 72: 7709-7713). The data presented here focus on the reduction in the number of metastatic lung foci as endpoint.
FIG. 7 depicts the anti-metastatic efficacy of WX-UK1 in a setting implying surgical resection of the orthotopically growing tumor at a defined size and various time points of therapy onset relative to resection. After orthotopic implantation of BN472 fragment under the mammary fat pad the primary tumors were allowed to grow to a fixed palpable size (4×4 mm). The treatments groups (n=18) were allocated in a way to ensure homogeneous group composition with respect to tumor residence periods (range 3-14 d) prior group allocation. Primary tumors were surgically removed 4 days after having reached the fixed size. Onsets of treatments with 0.3 mg/kg s.c. daily were group specifically either on the day of reaching the fixed size (PO)mor four (P4), eight (P8), or twelve (P112) days thereafter. […] Starting on day 3 after tumor inoculation treatment groups (n=15) received WX-UK1 at weekly doses of […] either by daily application of 0.3 mg/kg (0.3 mg/kg o.d.), by application of 1 mg/kg twice per week (1 mg/kg t.w.) or by dosing 2 mg/kg once per week (2 mg/kg o.w.). The anti-metastatic efficacy previously established with daily treatments was retained when WX-UK1 was administered only twice or once per week at the same weekly dose.
Treatment was initiated on day 3 after tumor inoculation. b) Groups of rats (n=8) were treated with 5-FU at 20 or 40 mg/kg i.v. once weekly either as mono-therapy or in combination with WX-UK1 i.p. treatments at 1 mg/kg twice weekly or with WX-UK1 alone. Indeed, WX-UK1 was efficacious at reducing lung foci numbers when combined with these standard therapeutics.

Sequence of Sc-tPA (single chain tPA) (P00750 36-562): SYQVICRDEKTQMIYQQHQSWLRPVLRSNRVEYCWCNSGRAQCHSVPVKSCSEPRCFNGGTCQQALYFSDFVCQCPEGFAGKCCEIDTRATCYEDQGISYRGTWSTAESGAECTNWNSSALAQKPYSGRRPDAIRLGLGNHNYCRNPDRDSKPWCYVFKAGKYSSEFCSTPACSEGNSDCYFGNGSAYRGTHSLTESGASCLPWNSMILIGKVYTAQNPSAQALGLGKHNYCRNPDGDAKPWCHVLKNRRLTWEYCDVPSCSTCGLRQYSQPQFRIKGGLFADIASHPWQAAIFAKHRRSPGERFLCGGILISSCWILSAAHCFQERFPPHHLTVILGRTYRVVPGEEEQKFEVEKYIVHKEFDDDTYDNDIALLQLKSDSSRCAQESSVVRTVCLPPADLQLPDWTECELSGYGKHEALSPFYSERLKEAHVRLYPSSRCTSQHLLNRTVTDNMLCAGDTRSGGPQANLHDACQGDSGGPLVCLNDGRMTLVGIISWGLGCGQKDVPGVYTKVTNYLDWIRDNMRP

CCOC(=O)N1CCN(C(=O)[C@H](Cc2cccc(C(=N)N)c2)NS(=O)(=O)c2c(C(C)C)cc(C(C)C)cc2C(C)C)CC1.Cl [uPA inhibitor, Nα-2,4,6-Triisopropylphenylsulfonyl-(L)-3-amidinophenylalanine 4-ethoxycarbonylpiperazide hydrochloride]
Ki [1]: 4.9 µM
Ki (Thrombin): 0.49 µM
Ki (Factor XIIa): 13 µM
Ki (Glandular kallikrein): > 1000 µM
Ki (Trypsin): 0.037 µM
weights of lung, liver, kidney and spleen ([2]; 1 mg/kg i.p. daily, 4 weeks, compared to control animals): unchanged
weight of the primary tumor ([2]; 1 mg/kg i.p. daily, 4 weeks, p=0.003 vs naphthyl derivative (B) and control): significant reduction
weight of the axillary lymph nodes ([2]; 1 mg/kg i.p. daily, 4 weeks, p=0.005 vs naphthyl derivative (B) and control): significant reduction
toxicity (body weight increase, organ weights) ([2]; breast and pancreatic tumor models in rats, inhibitor-treated vs vehicle-treated groups): no indications of any considerable toxicity
average tumor weights at the end of the treatment, reduced to % of vehicle-treated control ([2]; i.p.): 23%
mean weights of the axillary lymph nodes, reduced to % of control ([2]; i.p.): 27%
number of lung foci, reduced to % of control ([2]; i.p.): 9%
number of metastatic lung foci ([2]; rat breast cancer model, vs vehicle-treated controls): substantially reduced
sizes of subcutaneous tumors ([2]; rat pancreatic and breast cancer models, vs vehicle-treated controls): reduced
average tumor weights at the end of the treatment, reduced to % of vehicle-treated control ([2]; s.c.): 37%
mean weights of the axillary lymph nodes, reduced to % of control ([2]; s.c.): 48%
number of lung foci, reduced to % of control ([2]; s.c.): 32%
anti-metastatic activity with surgical resection of the primary tumor (rat breast tumor BN472; 0.3 mg/kg s.c. daily, various onsets relative to resection (FIG. 7)): Anti-metastatic activity was obvious
anti-metastatic efficacy at prolonged dosing intervals (rat breast tumor BN472; 1 mg/kg twice per week or 2 mg/kg once per week vs 0.3 mg/kg daily (FIG. 8)): retained
reducing lung foci numbers in combination (rat breast tumor BN472; combined with epirubicin or 5-FU (FIG. 9)): efficacious
